# Tests used:
# [1] = test system: MDA-MB-231BR tumor bearing brain slices; experiment: Ex vivo tumor-brain slice model; parameters: species or system Nu/Nu mice; details: MDA-MB-231BR brain slices, 100 μM, 6 days, bioluminescence
# Description: (§1) Ex vivo brain slice tumor model was performed as previously described ([Ciraku et al., 2021]). Briefly, Nu/Nu athymic 4–6 week old mice Charles River Laboratories (Wilmington, MA, United States) were immobilized using the Just for Mice Stereotaxic Frame (Harvard Apparatus, Holliston, MA, United States) and injected intracranially with 5uL of 20,000 cells/uL solution of luciferase tagged MDA-MB-231BR or 4T1BR cells. Tumor growth was monitored via bioluminescence imaging on the IVIS system (Perkin Elmer, Waltman, MA, United States). Organotypic hippocampal cultures were prepared as described previously ([Ciraku et al., 2021]). Briefly, adult mice (4–6 weeks) or mice after 12 days following intracranial injection were decapitated and their brains rapidly removed into ice-cold (4°C) sucrose-aCSF composed of the following (in mM): 280 sucrose, 5 KCl, 2 MgCl2, 1 CaCl2, 20 glucose, 10 HEPES, 5 Na^+-ascorbate, 3 thiourea, 2 Na^+-pyruvate; pH = 7.3. […] Tumor growth was monitored via bioluminescence imaging on the IVIS 200 system (Perkin Elmer), and results were analyzed using Living Image software (Caliper Life Sciences, Waltham, MA, United StatesUnited States). […] Tissues were incubated at 37 ℃ , 5% CO2 for 4 h, and absorbance at 490 nm was measured with a Tecan Spark Microplate reader.
# [2] = test system: brain slices not containing tumors; experiment: MTS cell viability of brain slices without tumor; parameters: species or system mice; details: 100 μM, day 6, MTS assay
# Description: as §1
# [3] = Human liver microsome stability; details: human, liver microsomes
# [4] = test system: 4T1BR tumor bearing brain slices; experiment: Ex vivo tumor-brain slice model; parameters: species or system nu/nu mice; details: 4T1BR brain slices, 100 μM, 6 days, bioluminescence
# Description: as §1
# MDR1-MDCK cells = experiment: Bi-directional permeability across MDR1-MDCK cell monolayer (BBB assay); type: in vitro ADME, canine; details: MDR1-MDCK BBB assay
# Description: (§2) This assay provides the apparent permeability coefficient (Papp), efflux ratio, and % recovery to assess compound permeation.
# MDR1 (P-gp) = experiment: as above; type: in vitro ADME, canine; details: dog, MDR1-MDCK I monolayer
# Description: as §2
# MDA-MB-231BR cells = experiment: Clonogenic survival assay; type: cell-based; details: 100 μM, 48 h treatment, 10 days growth
# Description: Triple-negative brain trophic cells MDA-MB-231BR and 4T1BR cells were a kind gift from Dr. Patricia Steeg (Center for Cancer Research, National Cancer Institute) ([Achrol et al., 2019]). Both cell lines were cultured in DMEM supplemented with 10% fetal bovine serum (FBS), 5% 10,000 Units/mL Penicillin-10,000 μg/mL Streptomycin, and 5% 200 mM L-Glutamine. For crystal violet staining, 5 × 10^4 cells were plated and subjected to the treatments as described in the individual figures and then stained with 0.5% crystal violet prepared in a 1:1 methanol-water solution followed by PBS washes. ACSS2 inhibitors were dissolved in 100% ultra-pure DMSO.
# To assess clonogenic survival, 1 × 10^5 cells were seeded into a 6-well plate until 70%–80% confluency and treated for 48 h with analogs at 100 uM (unless otherwise stated in the figure legend). After 48 h, cells were trypsinized and counted using hemocytomer, and 1 × 10^4 cells per treatment were plated into a 6-well plate with fresh culture medium and allowed to grow for 10 days. Following 10-day incubation, cells were washed twice with PBS, stained with crystal violet for 30 min, and washed with dH2O twice. Colonies >50mircons were counted. For crystal violet staining, 0.5% crystal violet was prepared in a 1:1 methanol-water solution.
# ACSS2 = target: T1, ACSS2 (Homo sapiens, UniProt Q9NR19); experiment: Fluorescence polarization-based ACSS2 biochemical assay (ATP to AMP conversion); details: 100 nM ACSS2, triplicate, ± SD; read-out: IC50, inhibition of ATP to AMP conversion of ACSS2
# T1 construct: His-tag (N); His-tag (C); made in house; host or cells: E. coli BL21 (DE3) RIL
# T1 sequence (Q9NR19 whole entry): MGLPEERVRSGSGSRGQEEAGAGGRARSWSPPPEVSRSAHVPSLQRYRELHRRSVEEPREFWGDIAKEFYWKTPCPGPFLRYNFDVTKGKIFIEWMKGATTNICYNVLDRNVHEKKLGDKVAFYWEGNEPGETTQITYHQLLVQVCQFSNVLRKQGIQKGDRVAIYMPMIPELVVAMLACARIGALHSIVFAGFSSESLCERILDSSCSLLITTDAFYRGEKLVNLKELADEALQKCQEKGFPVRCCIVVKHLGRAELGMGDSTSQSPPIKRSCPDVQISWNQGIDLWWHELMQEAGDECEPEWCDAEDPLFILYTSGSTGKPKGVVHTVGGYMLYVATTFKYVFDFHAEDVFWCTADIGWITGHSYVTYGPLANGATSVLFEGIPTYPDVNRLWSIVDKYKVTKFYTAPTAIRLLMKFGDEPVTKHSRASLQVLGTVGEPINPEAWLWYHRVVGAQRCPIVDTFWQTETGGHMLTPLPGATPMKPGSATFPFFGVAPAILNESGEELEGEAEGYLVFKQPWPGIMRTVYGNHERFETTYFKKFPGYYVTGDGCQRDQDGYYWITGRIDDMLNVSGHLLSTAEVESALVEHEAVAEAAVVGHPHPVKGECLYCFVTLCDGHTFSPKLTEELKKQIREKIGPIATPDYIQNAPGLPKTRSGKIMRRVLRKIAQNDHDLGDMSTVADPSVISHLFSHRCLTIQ
# Description: ACSS2 enzyme activity was measured using the TranScreener AMP^2/GMP^2 Assay Kit—FP Readout assay (BellBrook Labs). The assay was performed in white, opaque, 96-well plates. […] ACSS2 was used in assay buffer (30 mM HEPES, pH 7.4, 140 mM NaCl, 2 mM MgCl2, 5 mM sodium acetate, 2 mM DTT, 0.05% CHAPS). Substrate mix was added, followed by a 60-min incubation. Final substrate concentrations were 5 mM acetate, 50 μM ATP, and 5 μM CoA. After incubation, conjugated AMP antibody and AMP tracer were added according to the methods described by BellBrook Labs. After 30 min, the FP signal was measured using a Tecan Spark multimode microplate reader. In the analysis, data were normalized to represent the percentage inhibition of ATPase activity.
structure (smiles),measurement,setting,value
N[C@H](C(=O)N1CCCC(c2ccccc2)(c2ccccc2)C1)C1CC1 [AD-8007],tumor growth of preformed tumors ex vivo,[1],significantly reduced tumor growth of preformed tumors
same,cell viability of brain slices without tumor,[2],did not alter cell viability
same,CLint scaled,[3],< 8.6 mL/min/kg
same,microsomal CLint,[3],< 9.6 µL/min/mg
same,half-life,"[3]; Human Liver Microsome Stability T1/2, human liver microsomes",> 2.42 h
same,tumor growth of preformed tumors ex vivo,[4],significantly reduced tumor growth of preformed tumors
same,efflux ratio (in words),MDR1-MDCK cells,low efflux ratio
same,permeability (in words),MDR1-MDCK cells,moderate permeability
same,Papp A→B,MDR1 (P-gp); A to B,2.81 ×10⁻⁶ cm/s
same,Papp B→A,MDR1 (P-gp); B to A,25.2 ×10⁻⁶ cm/s
same,clonogenic survival,MDA-MB-231BR cells,significant reduction in clonogenic survival
same,IC50,ACSS2,890 ± 290 nM
